ChEMBL document CHEMBL3091361, “Synthesis, structure elucidation and in vitro anticancer activities of novel derivatives of diethyl (2E)-2-[(2E)-(1-arylimidazolidin-2-ylidene)hydrazono]succinate and ethyl (4-oxo-8-aryl-4,6,7,8-tetrahydroimidazo[2,1-c][1,2,4]triazin-3-yl)acetate” (Bioorg Med Chem, 2013)

Columns and labels:
[1] = Cytotoxicity against human MM1R cells at 50 ug/ml after 72 hrs by BrdU incorporation assay relative to control; type: functional; settings: MM.1R, read-out: GI
[2] = Cytotoxicity against human MM1S cells at 50 ug/ml after 24 hrs by BrdU incorporation assay relative to control; type: functional; settings: MM1.S, read-out: GI
HeLa [3] = experiment: Cytotoxicity against human HeLa cells at 50 ug/ml after 48 hrs by BrdU incorporation assay relative to control; type: functional; settings: read-out: GI
[4] = Cytotoxicity against human HSF cells at 50 ug/ml after 48 hrs by BrdU incorporation assay relative to control; type: cell-based; settings: read-out: GI
[5] = Cytotoxicity against human MM1R cells at 50 ug/ml after 24 hrs by BrdU incorporation assay relative to control; type: functional; settings: MM.1R, read-out: GI
T47D [6] = experiment: Cytotoxicity against human T47D cells at 50 ug/ml after 48 hrs by BrdU incorporation assay relative to control; type: functional; settings: read-out: GI
[7] = Cytotoxicity against human HSF cells at 50 ug/ml after 72 hrs by BrdU incorporation assay relative to control; type: cell-based; settings: read-out: GI
[8] = Cytotoxicity against human MM1R cells at 50 ug/ml after 48 hrs by BrdU incorporation assay relative to control; type: functional; settings: MM.1R, read-out: GI
[9] = Cytotoxicity against human MM1S cells at 50 ug/ml after 48 hrs by BrdU incorporation assay relative to control; type: functional; settings: MM1.S, read-out: GI
T47D [10] = experiment: Cytotoxicity against human T47D cells at 50 ug/ml after 72 hrs by BrdU incorporation assay relative to control; type: functional; settings: read-out: GI
HeLa [11] = experiment: Cytotoxicity against human HeLa cells at 50 ug/ml after 72 hrs by BrdU incorporation assay relative to control; type: functional; settings: read-out: GI
T47D [12] = experiment: Cytotoxicity against human T47D cells at 50 ug/ml after 24 hrs by BrdU incorporation assay relative to control; type: functional; settings: read-out: GI
[13] = Cytotoxicity against human HSF cells at 50 ug/ml after 24 hrs by BrdU incorporation assay relative to control; type: cell-based; settings: read-out: GI
HeLa [14] = experiment: Cytotoxicity against human HeLa cells at 50 ug/ml after 24 hrs by BrdU incorporation assay relative to control; type: functional; settings: read-out: GI
[15] = Cytotoxicity against human MM1S cells at 50 ug/ml after 72 hrs by BrdU incorporation assay relative to control; type: functional; settings: MM1.S, read-out: GI
T47D [16] = experiment: Induction of apoptosis in human T47D cells at 50 ug/ml after 48 hrs by propidium iodide/Hoechst 33342 staining-based confocal microscopy (reference value: 2%); type: functional
T47D [17] = experiment: Induction of apoptosis in human T47D cells at 50 ug/ml after 72 hrs by propidium iodide/Hoechst 33342 staining-based confocal microscopy (reference value: 5%); type: functional
[18] = Induction of apoptosis in human HSF cells at 50 ug/ml after 24 hrs by propidium iodide/Hoechst 33342 staining-based confocal microscopy (reference value: 2%); type: cell-based
[19] = Induction of necrosis in human HSF cells at 50 ug/ml after 72 hrs by propidium iodide/Hoechst 33342 staining-based confocal microscopy (reference value: 5%); type: cell-based
HeLa [20] = experiment: Induction of apoptosis in human HeLa cells at 50 ug/ml after 72 hrs by propidium iodide/Hoechst 33342 staining-based confocal microscopy (reference value: 5%); type: functional
[21] = Induction of apoptosis in human HSF cells at 50 ug/ml after 48 hrs by propidium iodide/Hoechst 33342 staining-based confocal microscopy (reference value: 5%); type: cell-based
HeLa [22] = experiment: Induction of necrosis in human HeLa cells at 50 ug/ml after 72 hrs by propidium iodide/Hoechst 33342 staining-based confocal microscopy (reference value: 10%); type: functional
HeLa [23] = experiment: Induction of apoptosis in human HeLa cells at 50 ug/ml after 48 hrs by propidium iodide/Hoechst 33342 staining-based confocal microscopy (reference value: 5%); type: functional
[24] = Induction of necrosis in human HSF cells at 50 ug/ml after 24 hrs by propidium iodide/Hoechst 33342 staining-based confocal microscopy (reference value: 2%); type: cell-based
HeLa [25] = experiment: Induction of apoptosis in human HeLa cells at 50 ug/ml after 24 hrs by propidium iodide/Hoechst 33342 staining-based confocal microscopy (reference value: 2%); type: functional
T47D [26] = experiment: Induction of necrosis in human T47D cells at 50 ug/ml after 72 hrs by propidium iodide/Hoechst 33342 staining-based confocal microscopy (reference value: 10%); type: functional
[27] = Induction of apoptosis in human HSF cells at 50 ug/ml after 72 hrs by propidium iodide/Hoechst 33342 staining-based confocal microscopy (reference value: 5%); type: cell-based
T47D [28] = experiment: Induction of apoptosis in human T47D cells at 50 ug/ml after 24 hrs by propidium iodide/Hoechst 33342 staining-based confocal microscopy (reference value: 2%); type: functional
T47D [29] = experiment: Induction of necrosis in human T47D cells at 50 ug/ml after 48 hrs by propidium iodide/Hoechst 33342 staining-based confocal microscopy (reference value: 8%); type: functional
[30] = Induction of necrosis in human HSF cells at 50 ug/ml after 48 hrs by propidium iodide/Hoechst 33342 staining-based confocal microscopy (reference value: 4%); type: cell-based
T47D [31] = experiment: Induction of necrosis in human T47D cells at 50 ug/ml after 24 hrs by propidium iodide/Hoechst 33342 staining-based confocal microscopy (reference value: 5%); type: functional
HeLa [32] = experiment: Induction of necrosis in human HeLa cells at 50 ug/ml after 24 hrs by propidium iodide/Hoechst 33342 staining-based confocal microscopy (reference value: 5%); type: functional
HeLa [33] = experiment: Induction of necrosis in human HeLa cells at 50 ug/ml after 48 hrs by propidium iodide/Hoechst 33342 staining-based confocal microscopy (reference value: 10%); type: functional
[34] = Selectivity ratio for human RPMI8226 cells over human HSF cells; type: ADME, cell-based, RPMI-8226; settings: RPMI8226 cells versus HSF cells
[35] = Toxicity in ip dosed albino-Swiss mouse; type: organism-based; settings: in vivo

Row | SMILES | inhibition of growth at 50 µg/mL [1] | inhibition of growth at 50 µg/mL [2] | inhibition of growth at 50 µg/mL (HeLa [3]) | inhibition at 48 h, 50 ug/ml [4] | inhibition of growth at 50 µg/mL [5] | inhibition of growth at 50 µg/mL (T47D [6]) | inhibition at 72 h, 50 ug/ml [7] | inhibition of growth at 50 µg/mL [8] | inhibition of growth at 50 µg/mL [9] | inhibition of growth at 50 µg/mL (T47D [10]) | inhibition of growth at 50 µg/mL (HeLa [11]) | inhibition of growth at 50 µg/mL (T47D [12]) | inhibition at 24 h, 50 ug/ml [13] | inhibition of growth at 50 µg/mL (HeLa [14]) | inhibition of growth at 50 µg/mL [15] | other results
1 | CCOC(=O)C/C(=N\N=C1/NCCN1c1ccc(C)cc1)C(=O)OCC | 95% | 55% | 45% | 80% | 75% | 75% | 80% | 90% | 70% | 80% | 50% | 50% | 70% | 5% | 85% | 
2 | CCOC(=O)C/C(=N\N=C1/NCCN1c1cccc(Cl)c1)C(=O)OCC | 80% | 40% | 25% | 90% | 70% | 85% | 90% | 75% | 65% | 90% | 45% | 80% | 70% | 5% | 80% | 
3 | CCOC(=O)C/C(=N\N=C1/NCCN1c1ccc(Cl)cc1)C(=O)OCC | 90% | 65% | 30% | 90% | 65% | 85% | 90% | 80% | 75% | 90% | 55% | 80% | 70% | 10% | 90% | 
4 | CCOC(=O)C/C(=N\N=C1/NCCN1c1ccc(Cl)c(Cl)c1)C(=O)OCC | 80% | 70% | 50% | 90% | 70% | 95% | 90% | 80% | 80% | 100% | 60% | 80% | 70% | 50% | 90% | 
5 | CCOC(=O)Cc1nnc2n(c1=O)CCN2c1ccccc1 | 90% | 25% | 75% | 50% | 80% | 80% | 50% | 85% | 30% | 85% | 75% | 40% | 25% | 20% | 80% | Activity (T47D [16]): 10%; Activity (T47D [17]): 10%; Activity [18]: 5%; Activity [19]: 50%; Activity (HeLa [20]): 15%; Activity [21]: 5%; Activity (HeLa [22]): 80%; Activity (HeLa [23]): 15%; Activity [24]: 25%; Activity (HeLa [25]): 10%; Activity (T47D [26]): 85%; Activity [27]: 8%; Activity (T47D [28]): 5%; Activity (T47D [29]): 80%; Activity [30]: 50%; Activity (T47D [31]): 40%; Activity (HeLa [32]): 20%; Activity (HeLa [33]): 75%
6 | CCOC(=O)Cc1nnc2n(c1=O)CCN2c1ccc(C)cc1 | 75% | 50% | 70% | 75% | 60% | 75% | 80% | 70% | 60% | 80% | 70% | 25% | 50% | 20% | 70% | 
7 | CCOC(=O)Cc1nnc2n(c1=O)CCN2c1ccccc1OC | 95% | 45% | 45% | 80% | 75% | 35% | 80% | 80% | 55% | 40% | 50% | 30% | 50% | 10% | 85% | 
8 | CCOC(=O)Cc1nnc2n(c1=O)CCN2c1cccc(Cl)c1 | 90% | 55% | 50% | 10% | 80% | 55% | 10% | 85% | 60% | 55% | 50% | 55% | 10% | 10% | 80% | Activity (T47D [16]): 20%; Activity (T47D [17]): 20%; Activity [18]: 5%; Activity [19]: 10%; Activity (HeLa [20]): 15%; Activity [21]: 5%; Activity (HeLa [22]): 50%; Activity (HeLa [23]): 15%; Activity [24]: 10%; Activity (HeLa [25]): 10%; Activity (T47D [26]): 55%; Activity [27]: 10%; Activity (T47D [28]): 10%; Activity (T47D [29]): 50%; Activity [30]: 10%; Activity (T47D [31]): 25%; Activity (HeLa [32]): 10%; Activity (HeLa [33]): 50%
9 | CCOC(=O)Cc1nnc2n(c1=O)CCN2c1ccc(Cl)c(Cl)c1 | 90% | 40% | 45% | 60% | 65% | 40% | 70% | 80% | 65% | 50% | 80% | 25% | 50% | 45% | 80% | Activity (T47D [16]): 10%; Activity (T47D [17]): 20%; Activity [18]: 10%; Activity [19]: 70%; Activity (HeLa [20]): 15%; Activity [21]: 10%; Activity (HeLa [22]): 80%; Activity (HeLa [23]): 10%; Activity [24]: 50%; Activity (HeLa [25]): 10%; Activity (T47D [26]): 50%; Activity [27]: 12%; Activity (T47D [28]): 15%; Activity (T47D [29]): 45%; Activity [30]: 60%; Activity (T47D [31]): 25%; Activity (HeLa [32]): 45%; Activity (HeLa [33]): 45%
10 | O=c1c(-c2ccccc2)nnc2n1CCN2c1cccc(Cl)c1 |  |  |  |  |  |  |  |  |  |  |  |  |  |  |  | selectivity ratio [34]: 1.5
11 | O=c1c(-c2ccccc2)nnc2n1CCN2c1ccc(Cl)cc1 |  |  |  |  |  |  |  |  |  |  |  |  |  |  |  | LD50 [35]: > 2000 mg/kg
